Literature values, collected in patent US8193201B2, “Synergistic anti-inflammatory pharmaceutical compositions and related methods using curcuminoids or methylxanthines” (priority 2004, dated 2012).

System: PGE2
Settings: value reported in the literature (Fiebich et al.)

## Cn1c(=O)c2c(ncn2C)n(C)c1=O [Caffeine, caffeine]
  median PGE2 inhibitory concentration: 8.2 µg/mL
